From patent US12448655B2, “Antibiotic susceptibility of microorganisms and related methods and systems” (CALIFORNIA INSTITUTE OF TECHNOLOGY, priority 2017, dated 2025)

Columns and labels:
Type in all cases: cell-based
Escherichia coli = test: Minimum inhibitory concentrations (MICs) of Enterobacteriaceae clinical isolates
Excerpt: (§1) Clinical isolates referenced, minimum inhibitory concentrations (MICs), and categorical susceptibility based on CLSI breakpoints The below list of organisms are examples of clinically-relevant susceptible and resistant Enterobacteriaceae clinical isolates. Minimum inhibitory concentrations (MICs) are provided in μg/mL for the antibiotics listed.
(§2) Isolates, growth conditions, and antibiotic exposure conditions. 25 de-identified clinical isolates were obtained from the UCLA Clinical Microbiology Laboratory (CML) and the CDC's Enterobacteriaceae Carbapenem Breakpoint panel. In the case of isolates obtained from the UCLA CML, MICs were determined as described previously. Genotypic testing of the two Ec and two Kp isolates selected for their lack of known β-lactamase genes was performed by UCLA CML using a previously published assay and separately at the Keck School of Medicine of USC using the FDA-approved Cepheid Xpert® Carba-R test. Whole genome sequencing of the single Ebs isolate selected for its lack of known resistance genes was performed by the CDC [3]. All isolates were stored as glycerol stocks at −80° C. Glycerol stocks were streaked onto Trypticase Soy Agar with 5% sheep's blood (Becton Dickinson, Franklin Lakes, NJ, USA) and grown overnight at 37° C. Prior to experiments, a small clump of cells was resuspended in 2 mL Brain Heart Infusion Broth (BHI, Becton Dickinson) at 37° C.+5% CO2 with 500 rpm shaking for 2 to 4 h until visibly turbid. OD600 of the cultures was then measured, and working cultures prepared at an OD600 of 0.01-0.07 and grown for 50-145 min at 37° C.+5% CO2 with 500 rpm. Working cultures were then diluted 10× into control and treated aliquots for antibiotic exposure. For validation experiments, antibiotic exposure was performed in 100 μL volumes consisting of 80 μL Mueller Hinton II Broth (Becton Dickinson), 5 μL nuclease-free H2O (NF—H2O), 5 μL 20× antibiotic stock solution, and 10 μL of working culture. In control aliquots, antibiotic stock solution was replaced with NF—H2O. For filtration experiments, antibiotic exposure was performed in 100 μL volumes consisting of 65 μL Mueller Hinton II Broth (Becton Dickinson), 21 μL nuclease-free H2O (NF—H2O), 4 μL 25× antibiotic stock solution, and 10 μL of working culture. In control aliquots, antibiotic stock solution was replaced with NF—H2O.

Klebsiella pneumoniae = test: as above
Excerpt: as §1, §2

Neisseria gonorrhoeae [1] = test: AST by inaccessible DNA without enhancing treatment, static incubation time course, qPCR (Example 7); settings: penicillin-susceptible isolate ng_15; 1 μg/mL PEN; MHB; DNaseI secondary step
Experimental: Antibiotic susceptibility test was performed with methods herein described relying on b-lactam-induced cellular lysis, or cell-wall damage, to generate differences in DNA accessibility between the unexposed and exposed tubes. No enhancing treatment is performed in this example. In this example DNaseI is used to degrade the DNA made accessible by beta-lactam induced damage over incubation times larger than what is tested in examples 1-6 (incubation times >30 minutes)
The layout of this experiment is illustrated in FIG. 14 according to which a penicillin-susceptible isolate is incubated with penicillin for 15 min-6 hours. At each time point, DNaseI will be added to degrade the accessible DNA, then the DNaseI will be inactivated simultaneously with the lysis of the remaining cells. The quantified nucleic acids represent those from the cells with inaccessible DNA throughout the antibiotic exposure and incubation with DNaseI.
The treated and untreated samples were incubated at 37° C. for 15 minutes, Ihr, 2 hr, 3 hr, 4 hr, 5 hr, 6 hr. At each time point, bring the culture tubes into the BSC and incubate an aliquot of the contents with DNaseI to degrade the accessible DNA. • 8. secondary incubation of treated and untreated samples to degrade accessible DNA […]

Neisseria gonorrhoeae [2] = test: Two-step nuc-aAST on Ng clinical urine samples and their isolates, TNP enhancer (Examples 35, 37); settings: antibiotic-resistant samples and isolates (Sample #3, #4); 1 μg/mL 30 min, then TNP 3-5 min, DNaseI
Experimental: Clinical sample nuc-aAST. Suspensions of clinical urine samples were prepared as described above. All suspensions were generated, and the ABX-exposure step initiated within 90 min of sample donation. The initial ABX-exposure was performed by incubating 50 μL control and treated samples at 37° C. in PCR tube strips on a BioRad C1000 Thermal Cycler. Treated samples consisted of […] of suspension and 1.25 μL aliquot of PEN or CRO (40 μg/mL). ABX were replaced with NF—H2O in control samples. After 30 min of incubation, samples were vortexed and quickly spun on a benchtop microcentrifuge (Labnet) at 2,000×g for 2-3 sec, and 2.7 μL TNP (100 mM) was added to each sample for the enhancement step. Samples were then immediately vortexed, spun on a benchtop microcentrifuge (Labnet) at 2,000×g for 2-3 sec, and incubated at 37° C. for 3-5 min. After the enhancement step, 20 μL from each sample was extracted by diluting 5× in QuickExtract DNA Extraction Solution (Lucigen) and heating for 6 min at 65° C. followed by 4 min at 98° C. on a BioRad C1000 Thermal Cycler. All sample handling following ABX exposure was performed using a multichannel pipette; qPCR and calculation of percentage accessibility were performed as previously described, with the modification that the qPCR mix included 2 μL of template per 10 μL PCR reaction instead of 1 μL template per 10 μL reaction. […]

| Compound | Antibiotic MICs (Escherichia coli; isolate Ec_1) | Antibiotic MICs (Escherichia coli; isolate Ec_2) | Antibiotic MICs (Escherichia coli; isolate Ec_3) | Antibiotic MICs (Escherichia coli; isolate Ec_4) | Antibiotic MICs (Escherichia coli; isolate Ec_38) [µg/mL] | Antibiotic MICs (Escherichia coli; isolate Ec_39) [µg/mL] | Antibiotic MICs (Escherichia coli; isolate Ec_40) | Antibiotic MICs (Escherichia coli; isolate Ec_41) [µg/mL] | Antibiotic MICs (Klebsiella pneumoniae; isolate Kp_1) | Antibiotic MICs (Klebsiella pneumoniae; isolate Kp_2) | Antibiotic MICs (Klebsiella pneumoniae; isolate Kp_7) [µg/mL] | Antibiotic MICs (Klebsiella pneumoniae; isolate Kp_8) [µg/mL] | antibiotic exposure time needed for a detectable CT ratio without enhancer (Neisseria gonorrhoeae [1]) [h] | mean percentage accessibility of DNA (Neisseria gonorrhoeae [2]) [%] |
| --- | --- | --- | --- | --- | --- | --- | --- | --- | --- | --- | --- | --- | --- | --- |
| CO/N=C(\C(=O)N[C@@H]1C(=O)N2C(C(=O)O)=C(CSc3nc(=O)c(=O)[nH]n3C)CS[C@H]12)c1csc(N)n1 [CRO, ceftriaxone] | <=1 μg/mL | <=1 μg/mL | <=1 μg/mL | <=1 μg/mL | >32 | >32 | >=64 μg/mL | >32 | <=1 μg/mL | <=1 μg/mL | >32 | >32 |  |  |
| penicillin |  |  |  |  |  |  |  |  |  |  |  |  | ≥ 3 | < 46 |
